Data from patent publication US9809521B2, “Cannabidinoid derivatives” (priority 2011, dated 2017).

Experiments:
[1] = system: SAS, HSC-2, ACCM and ACC2 cells; experiment: Head and neck and salivary gland cancer cells: Id-1 expression, viability, invasiveness; assay type: cell-based
Experimental: Measuring the effect of CBD on the aggressiveness of head and neck as well as salivary gland cancer cells. Head and neck cancer cell lines (SAS and HSC-2 in the upper panels) and salivary gland cancer cell lines (ACCM and ACC2 in the lower panels) were treated with CBD.

4T1 cells = experiment: In-vivo primary tumor proliferation (4T1 mammary fat pad, flank of Nude mice); parameters: species or system mouse; conditions: daily treatment from one week post injection
Experimental: In-vivo studies of breast and brain tumor formation with CBD. The compounds of the disclosure were effective in inhibiting tumor formation in an in-vivo model. Breast cancer 4T1 cells were subcutaneously injected into the mammary fat pad of BALBc mice (FIG. 8, Panel A), or into the flank of Nude mice (FIG. 8, Panel B). After one week post injection, the mice were treated daily (systemic in A, and peritumoral in B) with CBD […]. Primary tumor volume was then calculated by measuring the perpendicular largest diameters of the tumor with a caliper and using the formula (L×W^2/2).

U251 cells [2] = experiment: Boyden chamber invasion assay; assay type: cell-based, human
From the text: Boyden chamber U251 cell invasion studies with CBD and/or Δ^9-THC. In addition to uncontrolled cell growth, a hallmark phenotype of aggressive GBM tumor cells is their ability to migrate away for the primary tumor of origin and invade into neighboring CNS tissue.

SF126 cells = experiment: MTT cell proliferation assay; conditions: read-out: IC50, SF126; seven day treatment; 95% confidence limits in brackets
Id-1 [3] = experiment: Quantitative Western analysis of Id-1 expression in different types of cancer cells; assay type: cell-based
Experimental: Quantitative Western analysis of Id-1 expression in different types of cancer cells with or without CBD treatment. Quantitative Western analysis was performed to examine whether CBD would downregulate Id-1 protein expression in cell lines for breast, prostate, salivary gland, head and neck, and glioblastoma cell lines. […] For the salivary gland cancer cell line, ACCM, a higher concentration of CBD (2.5 μM) was required to see a significant downregulation in Id-1 expression (FIG. 13, panel C (left)).

U251 cells [4] = experiment: Apoptosis (annexin staining, FACS); assay type: cell-based, human
Experimental: Apoptosis: Cells were grown in 6 well culture dishes and were treated with compounds of the disclosure every 24 hours for three days. […] The labeled cells were analyzed by flow cytometry. Cell Flow Cytometry in combination with PI and annexin staining was used to quantify the percentage of cells undergoing apoptosis in control and treatment groups. Percent control was calculated as annexin positive staining in treated cells/control cells×100. PI staining was used to distinguish necrotic cells from those undergoing apoptosis.
Albeit, the magnitude of these effects was reduced compared to those observed with the combination treatment.
The concentrations of the individual cannabinoids (THC and CBD) were next increased in order to attempt to match levels of apoptosis produced by the combination treatment. The purpose of these experiments was to determine whether the compounds alone recruited similar pathways as compared to the combination of THC and CBD. […] However, THC alone could not produce the level of apoptosis observed with the combination treatment (FIG. 23, panel A and B).

Id-1 [5] = experiment: Quantitative Western analysis of Id-1 expression in 4T1 cells; assay type: cell-based, mouse; conditions: 1.0 μM, two days
Experimental: To examine whether CBD or O-1663 CBD analog would inhibit Id-1 protein expression in cells proposed for the in-vivo metastic cancer model, quantitative Western analysis was performed with 4T1 cells. 4T1 cells were treated with 1.0 μM of cannabinoid for two days and then analyzed for Id-1 protein expression.

Id-2 = experiment: Western analysis of Id-2 expression in breast cancer cells; assay type: cell-based, human; conditions: 1.0 μM, three days
CB1 receptors = CB1 receptors (Homo sapiens, UniProt P21554); experiment: Affinity for CB1 receptors; assay type: binding
CB1 receptors, sequence (P21554 whole entry): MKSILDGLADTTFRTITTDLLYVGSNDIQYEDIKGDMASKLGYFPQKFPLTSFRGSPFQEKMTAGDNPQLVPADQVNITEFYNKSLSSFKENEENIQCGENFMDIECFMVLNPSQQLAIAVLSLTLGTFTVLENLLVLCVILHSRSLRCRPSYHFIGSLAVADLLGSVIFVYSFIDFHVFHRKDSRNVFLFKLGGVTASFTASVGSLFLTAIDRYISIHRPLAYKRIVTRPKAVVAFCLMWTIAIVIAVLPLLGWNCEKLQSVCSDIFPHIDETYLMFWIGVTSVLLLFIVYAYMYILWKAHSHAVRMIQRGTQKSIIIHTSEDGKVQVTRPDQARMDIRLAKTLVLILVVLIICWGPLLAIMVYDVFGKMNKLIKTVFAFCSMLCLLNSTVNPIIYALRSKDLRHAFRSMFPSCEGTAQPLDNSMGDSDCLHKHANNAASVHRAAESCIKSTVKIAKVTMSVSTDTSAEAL

With `C=C(C)[C@@H]1CCC(C)=C[C@H]1c1c(O)cc(CCCCC)cc1O` [CBD, cannabidiol] the “ACCM tumor cell viability and invasiveness” value [1] was “significant effect on ACCM tumor cell viability and invasiveness”, the “Id-1 gene expression in SAS, HSC-2, ACCM, ACC2” value [1] was “downregulated in all cell lines” and the “SAS tumor cell viability and invasiveness” value [1] was “significant effect on SAS tumor cell viability and invasiveness”. For the same compound, the “tumor proliferation in-vivo (primary tumor volume)” value (4T1 cells) was “potent inhibitor of tumor proliferation”, the “invasiveness of U251 cells” value (U251 cells [2]) was “significantly reduce the invasiveness of U251 cells” and the IC50 (SF126 cells) was 730 nM. The “Id-1 protein expression in MDA-MB231, MDA-MB436, PC3, DU145, SAS, U251 and SF126” value (Id-1 [3]; 1.5 μM) was “significant inhibition of Id-1 protein expression”, the “concentration required for significant downregulation in Id-1 expression, ACCM” value (Id-1 [3]; salivary gland cancer cell line ACCM) was 2.5 µM and the “block of apoptosis by CB2 antagonist SR144528” value (U251 cells [4]; 0.5 μM SR144528, combination 1.7/0.4 μM, 2.5 μM THC, 2.0 μM CBD) was “no reversal was observed with SR144528”. For the same compound, the “block of apoptosis by α-tocopherol” value (U251 cells [4]; 20 μM α-tocopherol, combination 1.7/0.4 μM, 2.5 μM THC, 2.0 μM CBD) was “completely blocked by α-tocopherol” and the “apoptosis (annexin)” value (U251 cells [4]; THC 1.7 μM, CBD 0.4 μM, three days) was “did not produce significant changes in apoptosis”.

For `CCCCC(C)(C)c1cc(O)c(C2CCC(C3CCCCC3)CC2)c(O)c1` (centres unmarked) [Compound O-1663], the “Id-1 protein expression compared with CBD” value (Id-1 [5]) was “downregulated Id-1 protein expression to a far greater extent than CBD”, the “up-regulation of Id-2 expression” value (Id-2) was “more potent than CBD at up-regulating Id-2 expression” and the “affinity for CB1 receptors” value (CB1 receptors) was “lower affinity for CB1 receptors in comparison to THC”.
